The values below come from patent US11787796B2, “Plasma Kallikrein inhibitors and uses thereof” (Takeda Pharmaceutical Company Limited, priority 2019, dated 2023).

Some results are limits rather than exact numbers.

A word on the EC50: it is the concentration at which the effect is half-maximal.

Chain of human activated kallikrein enzyme (P03952 391-638): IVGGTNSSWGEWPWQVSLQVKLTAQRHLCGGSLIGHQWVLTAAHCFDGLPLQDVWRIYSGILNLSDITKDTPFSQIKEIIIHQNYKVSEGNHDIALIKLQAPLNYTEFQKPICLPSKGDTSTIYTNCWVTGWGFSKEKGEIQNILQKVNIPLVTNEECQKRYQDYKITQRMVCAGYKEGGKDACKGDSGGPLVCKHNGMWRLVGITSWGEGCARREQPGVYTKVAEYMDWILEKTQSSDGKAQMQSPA
Chain of human activated kallikrein enzyme (P03952 20-390 partner): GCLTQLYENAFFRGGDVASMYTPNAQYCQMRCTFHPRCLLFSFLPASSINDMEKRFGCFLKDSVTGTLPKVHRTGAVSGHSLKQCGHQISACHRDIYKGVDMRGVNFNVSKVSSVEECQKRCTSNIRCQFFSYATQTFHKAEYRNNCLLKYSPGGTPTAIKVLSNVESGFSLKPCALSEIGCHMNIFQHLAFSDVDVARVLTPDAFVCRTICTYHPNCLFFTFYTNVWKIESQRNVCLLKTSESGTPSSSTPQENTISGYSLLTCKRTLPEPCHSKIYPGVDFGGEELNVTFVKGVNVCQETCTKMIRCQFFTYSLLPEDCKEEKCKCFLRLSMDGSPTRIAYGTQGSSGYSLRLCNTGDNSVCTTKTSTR

One test has as its target human activated kallikrein enzyme (Homo sapiens (Human), UniProt P03952). The test can be described thus: Plasma kallikrein inhibition assay with fluorogenic peptide substrate, 500 pM activated kallikrein format. The following applies: 500 pM activated kallikrein; 300 uM Pro-Phe-Arg-7-amido-4-methylcoumarin substrate; 30 min preincubation, 10 min reaction at RT; read-out: Primary Dose Response Assay: Average EC50. Type of test: biochemical. How it is done: Example compounds were evaluated for inhibition of the human activated kallikrein enzyme in two formats of an assay employing a fluorogenic peptide substrate. In one assay format, the concentrations of reagents were as follows: 20 mM Tris pH 7.5, 1 mM EDTA, 150 mM sodium chloride, 0.1% PEG-400, 0.1% Triton X-100, […], 300 uM Pro-Phe-Arg-7-amido-4-methylcoumarin substrate. Prior to reaction initiation with substrate, enzyme and inhibitors were preincubated for 30 min at RT. After initiation with substrate, reactions were incubated for 10 min at RT and fluorescence emission at 460 nm from 380 nm excitation measured with a microplate reader. In another assay format, the concentrations of reagents were as follows: 20 mM Tris pH 7.5, 1 mM EDTA, 150 mM sodium chloride, 0.1% PEG-400, 0.1% Triton X-100, 5 pM activated kallikrein enzyme, 300 uM Pro-Phe-Arg-7-amido-4-methylcoumarin substrate. Prior to reaction initiation with substrate, enzyme and inhibitors were preincubated for 30 min at RT. After initiation with substrate, reactions were incubated for 18 h at RT and fluorescence emission at 460 nm from 380 nm excitation measured with a microplate reader.
Table II provides the results of the assay in the format with 500 pM activated kallikrein assay.
Table III provides comparative plasma kallikrein inhibition potency in the assay format with 500 pM activated kallikrein assay (described in detail in the preceding example).
For `COc1ccc(-n2cc(Cl)nn2)c(CNC(=O)c2cn(Cc3cn4cc(C5CC5)ccc4n3)nn2)c1F` [Example I-1, N-(6-(4-chloro-1H-1,2,3-triazol-1-yl)-2-fluoro-3-methoxybenzyl)-1-((6-cyclopropylimidazo[1,2-a]pyridin-2-yl)methyl)-1H-1,2,3-triazole-4-carboxamide], the EC50 was not above 0.001 µM.
Still for that read-out and setting: the figure for `COc1ccc(-n2cnnn2)c(CNC(=O)c2cc3n(n2)CCC3c2cn3cc(C4CC4)ccc3n2)c1F` (stereo not drawn) [Example I-2, 4-(6-cyclopropylimidazo[1,2-a]pyridin-2-yl)-N-(2-fluoro-3-methoxy-6-(1H-tetrazol-1-yl)benzyl)-5,6-dihydro-41-pyrrolo[1,2-b]pyrazole-2-carboxamide] is 0.001 to 0.01 µM; for `O=C(NCc1cc(Cl)ccc1-n1cc(Cl)nn1)c1cn(Cc2cn3cc(C4CC4)ccc3n2)nn1` [Example I-3, N-(5-chloro-2-(4-chloro-1H-1,2,3-triazol-1-yl)benzyl)-1-((6-cyclopropylimidazo[1,2-a]pyridin-2-yl)methyl)-1H-1,2,3-triazole-4-carboxamide] it is 0.01 to 0.1 µM.
Same read-out and setting: under `COc1ccc(-n2cnnn2)c(CNC(=O)c2nc3n(n2)CCC3c2cn3cc(C4CC4)ccc3n2)c1F` (stereo not drawn) [Example I-4, 7-(6-cyclopropylimidazo[1,2-a]pyridin-2-yl)-N-(2-fluoro-3-methoxy-6-(1H-tetrazol-1-yl)benzyl)-6,7-dihydro-5H-pyrrolo[1,2-b][1,2,4]triazole-2-carboxamide] stands 0.001 to 0.01 µM; under `COc1ccnc(CNC(=O)c2cn3c(n2)CCC3c2cn3cc(C4CC4)ccc3n2)c1F` (stereo not drawn) [Example I-5, 5-(6-cyclopropylimidazo[1,2-a]pyridin-2-yl)-N-((3-fluoro-4-methoxypyridin-2-yl)methyl)-6,7-dihydro-5H-pyrrolo[1,2-a]imidazole-2-carboxamide], 0.01 to 0.1 µM; under `COc1ccnc(CNC(=O)c2cnc3n2C(c2cn4cc(C5CC5)ccc4n2)CC3)c1F` (stereo not drawn) [Example I-6, 5-(6-cyclopropylimidazo[1,2-a]pyridin-2-yl)-N-((3-fluoro-4-methoxypyridin-2-yl)methyl)-6,7-dihydro-5H-pyrrolo[1,2-a]imidazole-3-carboxamide], more than 7.1 µM.
For the molecule `COc1ccnc(CNC(=O)c2cn(Cc3cn4cc(C5CC5)ccc4n3)nn2)c1F` [Example I-7, 1-((6-cyclopropylimidazo[1,2-a]pyridin-2-yl)methyl)-N-((3-fluoro-4-methoxypyridin-2-yl)methyl)-1H-1,2,3-triazole-4-carboxamide], the concentration for a half-maximal effect (EC50) is 0.01 to 0.1 µM.
Still for that read-out and setting: the figure for `COc1ccc(F)c(CNC(=O)c2cn(Cc3cn4cc(C5CC5)cc(COCCN(C)C)c4n3)nn2)c1F` [Example I-8, 1-((6-cyclopropyl-8-((2-(dimethylamino)ethoxy)methyl)imidazo[1,2-a]pyridin-2-yl)methyl)-N-(2,6-difluoro-3-methoxybenzyl)-1H-1,2,3-triazole-4-carboxamide] is 0.001 to 0.01 µM; for `COc1ccc(-n2cnnn2)c(CNC(=O)c2cn3c(n2)OCC3c2cn3cc(C4CC4)ccc3n2)c1F` (stereo not drawn) [Example I-9, 3-(6-cyclopropylimidazo[1,2-a]pyridin-2-yl)-N-(2-fluoro-3-methoxy-6-(1H-tetrazol-1-yl)benzyl)-2,3-dihydroimidazo[2,1-b]oxazole-6-carboxamide] it is 0.01 to 0.1 µM.
Same read-out and setting: the figure for `NCc1cc(C2CC2)cn2cc(Cn3cc(C(=O)NC4CCc5c4ccnc5N)nn3)nc12` (stereo not drawn) [Example I-10, N-(1-amino-6,7-dihydro-5H-cyclopenta[c]pyridin-5-yl)-1-((8-(aminomethyl)-6-cyclopropylimidazo[1,2-a]pyridin-2-yl)methyl)-1H-1,2,3-triazole-4-carboxamide] is not above 0.001 µM; for `O=C(NCc1cc2c(Cl)nccc2s1)c1cn(Cc2cn3cc(C4CC4)ccc3n2)nn1` [Example I-11, N-((4-chlorothieno[3,2-c]pyridin-2-yl)methyl)-1-((6-cyclopropylimidazo[1,2-a]pyridin-2-yl)methyl)-1H-1,2,3-triazole-4-carboxamide] it is more than 7.1 µM; for `COc1ccc(F)c(CNC(=O)c2cn(Cc3cn4cc(C5CC5)cc(CC(C)(C)C#N)c4n3)nn2)c1F` [Example I-12, 1-((8-(2-cyano-2-methylpropyl)-6-cyclopropylimidazo[1,2-a]pyridin-2-yl)methyl)-N-(2,6-difluoro-3-methoxybenzyl)-1H-1,2,3-triazole-4-carboxamide] it is 0.001 to 0.01 µM.
Consider `COc1ccc(F)c(CNC(=O)c2cn(Cc3cn4cc(C5CC5)cc(CN)c4n3)nn2)c1F` [Example I-13, 1-((8-(aminomethyl)-6-cyclopropylimidazo[1,2-a]pyridin-2-yl)methyl)-N-(2,6-difluoro-3-methoxybenzyl)-1H-1,2,3-triazole-4-carboxamide], for which the 50% effective concentration (EC50) lay in the range of 0.001 to 0.01 µM.
For the molecule `N#Cc1cc(C2CC2)cn2cc(Cn3cc(C(=O)NC4CCc5c4ccnc5N)nn3)nc12` (stereo not drawn) [Example I-14, N-(1-amino-6,7-dihydro-5H-cyclopenta[c]pyridin-5-yl)-1-((8-cyano-6-cyclopropylimidazo[1,2-a]pyridin-2-yl)methyl)-1H-1,2,3-triazole-4-carboxamide], the EC50 was in the range of 0.001 to 0.01 µM.
Still for that read-out and setting: the figure for `COc1ccc(-n2cnnn2)c(CNC(=O)c2c(C)nn(Cc3cn4cc(C5CC5)ccc4n3)c2C)c1F` [Example I-15, 1-((6-cyclopropylimidazo[1,2-a]pyridin-2-yl)methyl)-N-(2-fluoro-3-methoxy-6-(1H-tetrazol-1-yl)benzyl)-3,5-dimethyl-1H-pyrazole-4-carboxamide] is 0.1 to 2 µM; for `Cc1cc2c(c(N)n1)CCC2NC(=O)c1cn(Cc2cn3cc(C4CC4)ccc3n2)nn1` (stereo not drawn) [Example I-16, N-(1-amino-3-methyl-6,7-dihydro-5H-cyclopenta[c]pyridin-5-yl)-1-((6-cyclopropylimidazo[1,2-a]pyridin-2-yl)methyl)-1H-1,2,3-triazole-4-carboxamide] it is not above 0.001 µM; for `COc1ccc(-n2cnnn2)c(CNC(=O)c2cn(Cc3cn4cc(C5CC5)cc(COCCN)c4n3)nn2)c1F` [Example I-17, 1-((8-((2-aminoethoxy)methyl)-6-cyclopropylimidazo[1,2-a]pyridin-2-yl)methyl)-N-(2-fluoro-3-methoxy-6-(1H-tetrazol-1-yl)benzyl)-1H-1,2,3-triazole-4-carboxamide] it is not above 0.001 µM.
Consider `Nc1ncc(CNC(=O)c2cn(Cc3cn4cc(C5CC5)ccc4n3)nn2)s1` [Example I-18, N-((2-aminothiazol-5-yl)methyl)-1-((6-cyclopropylimidazo[1,2-a]pyridin-2-yl)methyl)-1H-1,2,3-triazole-4-carboxamide], for which the half-maximal effective concentration (EC50) fell in the range of 0.1 to 2 µM.
The same measure, in the same setting: the figure for `Nc1nnc(CNC(=O)c2cn(Cc3cn4cc(C5CC5)ccc4n3)nn2)o1` [Example I-19, N-((5-amino-1,3,4-oxadiazol-2-yl)methyl)-1-((6-cyclopropylimidazo[1,2-a]pyridin-2-yl)methyl)-1H-1,2,3-triazole-4-carboxamide] is 2 to 7.1 µM; for `Nc1nnc(CNC(=O)c2cn(Cc3cn4cc(C5CC5)ccc4n3)nn2)s1` [Example I-20, N-((5-amino-1,3,4-thiadiazol-2-yl)methyl)-1-((6-cyclopropylimidazo[1,2-a]pyridin-2-yl)methyl)-1H-1,2,3-triazole-4-carboxamide] it is 2 to 7.1 µM; for `Nc1nnc(CNC(=O)c2cn(Cc3cn4cc(C5CC5)ccc4n3)nn2)[nH]1` [Example I-21, N-((5-amino-4H-1,2,4-triazol-3-yl)methyl)-1-((6-cyclopropylimidazo[1,2-a]pyridin-2-yl)methyl)-1H-1,2,3-triazole-4-carboxamide] it is 2 to 7.1 µM.
For the molecule `COc1ccc(-n2cnnn2)c(CNC(=O)c2cn3c(n2)CCC3c2cn3cc(C4CC4)ccc3n2)c1F` (stereo not drawn) [Example I-22, 5-(6-cyclopropylimidazo[1,2-a]pyridin-2-yl)-N-(2-fluoro-3-methoxy-6-(1H-tetrazol-1-yl)benzyl)-6,7-dihydro-5H-pyrrolo[1,2-a]imidazole-2-carboxamide], the half-maximal effective concentration (EC50) was not above 0.001 µM.
The same measure, in the same setting: the figure for `Nc1nccc2c1CCC2NC(=O)c1cn(Cc2cn3cc(C4CC4)ccc3n2)nn1` (stereo not drawn) [Example I-23, N-(1-amino-6,7-dihydro-5H-cyclopenta[c]pyridin-5-yl)-1-((6-cyclopropylimidazo[1,2-a]pyridin-2-yl)methyl)-1H-1,2,3-triazole-4-carboxamide] is not above 0.001 µM; for `COc1ccc(-n2cnnn2)c(CNC(=O)c2cnc3n2C(c2cn4cc(C5CC5)ccc4n2)CC3)c1F` (stereo not drawn) [Example I-24, 5-(6-cyclopropylimidazo[1,2-a]pyridin-2-yl)-N-(2-fluoro-3-methoxy-6-(1H-tetrazol-1-yl)benzyl)-6,7-dihydro-5H-pyrrolo[1,2-a]imidazole-3-carboxamide] it is 2 to 7.1 µM.

Staying with this test, now noted: comparative compounds (Table III); 500 pM activated kallikrein format; read-out: Primary Dose Response Assay: Average EC50.
With `O=C(NCc1ncn2ccc(Cl)c(F)c12)c1cn(Cc2ccc3nccnc3c2)nn1`, the concentration for a half-maximal effect (EC50) was in the range of 0.01 to 0.1 µM.
The same measure, in the same setting: under `O=C(NCc1ncn2ccc(Cl)c(F)c12)c1cn(Cc2cn3ccccc3n2)nn1` stands 0.01 to 0.1 µM.
Same read-out and setting: under `NC(=O)c1cnn(Cc2cn3cc(C4CC4)ccc3n2)c1` stands more than 7.1 µM.
